Reference: a compilation of properties of binary mixtures (doi:10.1016/j.molliq.2005.06.001)

Assay: xn = mol fraction of the nth substance listed
Details: 298 K, 101 kPa

CCCn1cc[n+](C)c1.[Br-] + CC1COC(=O)O1
Details	electrical conductivity [S/m]
x1 = 0.004	0.09
x2 = 0	0.03
x2 = 0.19	0.07
x2 = 0.27	0.09
x2 = 0.38	0.15
x2 = 0.46	0.26
x2 = 0.49	0.26
x2 = 0.55	0.42
x2 = 0.61	0.47
x2 = 0.76	0.59
x2 = 0.82	0.69
x2 = 0.89	0.73
x2 = 0.93	0.63
x2 = 0.96	0.49

CC[n+]1ccn(C)c1.F[B-](F)(F)F + CC1COC(=O)O1
Details	electrical conductivity [S/m]
x1 = 0.001	0.05
x2 = 0	1.39
x2 = 0.37	1.73
x2 = 0.55	1.85
x2 = 0.65	1.87
x2 = 0.75	1.8
x2 = 0.95	0.99

CNC=O + CC[n+]1ccn(C)c1.F[B-](F)(F)F
Details	electrical conductivity [S/m]
x1 = 0.05	1.59
x1 = 0.11	1.79
x1 = 0.31	2.26
x1 = 0.57	2.97
x1 = 0.72	3.15
x1 = 0.78	3.26
x1 = 0.86	3.05
x1 = 0.91	2.62
x2 = 0.001	0.34

Cn1ccnc1 + CC[n+]1ccn(C)c1.F[B-](F)(F)F
Details	electrical conductivity [S/m]
x1 = 0.1	1.67
x1 = 0.19	1.72
x1 = 0.31	1.83
x1 = 0.41	1.91
x1 = 0.51	2.01
x1 = 0.61	2.11
x1 = 0.7	2.15
x1 = 0.8	2.12
x1 = 0.85	1.85
x1 = 0.9	1.7
x1 = 0.95	1.18
x2 = 0.003	0.14

CCCn1cc[n+](C)c1.[Br-] + O
Details	electrical conductivity [S/m]
x1 = 0.0002	0.16
x2 = 0	0.03
x2 = 0.22	0.155
x2 = 0.36	0.46
x2 = 0.51	1.22
x2 = 0.79	6.23
x2 = 0.96	8.92

CC[n+]1ccn(C)c1.F[B-](F)(F)F + O
Details	electrical conductivity [S/m]
x1 = 0.0001	0.08
x1 = 0.01	4.13
x2 = 0	1.39
x2 = 0.16	2.04
x2 = 0.34	2.92
x2 = 0.47	4.11
x2 = 0.66	6.17
x2 = 0.9	9.28
x2 = 0.92	8.78
x2 = 0.95	8.32
x2 = 0.97	6.32
